Target: T1, ntMGAM (purchased as maltase-glucoamylase from rice, EC 3.2.1.20, Sigma G9259)
T1 construct: gene Os06g0675700; commercial native rice alpha-glucosidase; no human protein source or expression described
Assay: NMR transverse relaxation (CPMG) titration
Type: binding
Details: pH 6.8, 310 K, 10 mM sodium phosphate, 10% D2O, protein 18 μM; signal H-9; unit printed as M^-1 under a Kd heading
Excerpt: NMR transverse relaxation (CPMG) titration on ntMGAM (purchased as maltase-glucoamylase from rice, EC 3.2.1.20, Sigma G9259)

K d(M^-1): (5.4±0.1)×10^−5 M^−1
SMILES: C[C@H]1O[C@H](O[C@H]2[C@H](O)[C@@H](O)[C@@H](O[C@H]3[C@H](O)[C@@H](O)C(O)O[C@@H]3CO)O[C@@H]2CO)[C@H](O)[C@@H](O)[C@@H]1N[C@H]1C=C(CO)[C@@H](O)[C@H](O)[C@H]1O (stereo partly shown) [acarbose]

From PMC3742645, “The Effect of Polyhydroxylated Alkaloids on Maltase-Glucoamylase” (PLoS ONE, 2013)
